Entries after “also recorded” stand apart in the source; their conditions may differ.
Key:
FADS1 expression = FADS1 expression in lymphoblasts after drug treatment (qRT-PCR); type: cell-based, human; conditions: 24 hours; for FADS1 response to drug, D/D vs I/I haplotype homozygotes (in words): lymphoblasts, 1 μNI GW3965, 20 μM rosiglitazone
Experimental: Immortalized B-lymphocyte (lymphoblast) cell lines from Japanese HapMap participants were obtained from the Coriell Institute for Medical Research, and used within 10 passages of receipt from the repository. Cells were grown in RPMI 1640 with 2 mM L-alanyl-glutamine (Sigma) and 15% fetal bovine serum (media and serum obtained from HyClone) in a humidified environment at 37° C. with 5% CO2. All experiments were conducted on cells grown and treated in parallel in identical media and growth conditions. […] RNA was extracted using the RNeasy kit (Qiagen), and RNA quality was checked by agarose gel electrophoresis to verify RNA integrity and by 260/280 nm ratios on a NanoDrop 2000 (Thermo Scientific). cDNA was prepared using the High Capacity cDNA Reverse Transcription Kit (Applied Biosystems) according to the manufacturer's protocol.
(§1) Quantitative real-time PCR was carried out using SYBR Green Master Mix (Roche) on a LightCycler 480 instrument (Roche). PCR primers were obtained from Integrated DNA Technologies (sequences available upon request), except for 18S, which was obtained from Qiagen as a QuantiTect Primer Assay. PCR reaction efficiency was calculated from standard curves, and reactions were assessed by both melting curves and by running on agarose gels to verify reaction products and the absence of primer-dimers. Quantitative cycle (Cq) values were determined using LightCycler 480 SW1.5.0SP3 software, version 1.5.0.39 (Roche). […] Statistical significance of differences in fold changes between genotypes in response to cell treatments (normalized to vehicle treatment for each genotype) was assessed by the Mann-Whitney U test. Bootstrapping and randomization techniques were used in REST 2009 software (Qiagen) to calculate significance of fold changes normalizing both genotypes to basal expression in I/I allele homozygotes.
Follow-up experiments were carried out in Japanese HapMap lymphoblast cell lines homozygous for the D/D haplotype associated with FADS1 expression, or homozygous for the I/I haplotype. All available D/D haplotype homozygote cell lines were used (n=5), as well as randomly chosen I/I allele homozygote cell lines (n=11).
To investigate the possibility of a causal genetic variation in a transcription factor binding site, cells were treated with drugs acting directly or indirectly on PPARγ or SREBP-1c.

FADS2 expression = FADS2 expression in lymphoblasts after drug treatment (qRT-PCR); type: cell-based, human; conditions: 24 hours
Experimental: Immortalized B-lymphocyte (lymphoblast) cell lines from Japanese HapMap participants were obtained from the Coriell Institute for Medical Research, and used within 10 passages of receipt from the repository. Cells were grown in RPMI 1640 with 2 mM L-alanyl-glutamine (Sigma) and 15% fetal bovine serum (media and serum obtained from HyClone) in a humidified environment at 37° C. with 5% CO2. All experiments were conducted on cells grown and treated in parallel in identical media and growth conditions. […]
as §1, with “Bootstrapping and randomization techniques were used in REST 2009 software (Qiagen) to calculate significance of fold changes normalizing both genotypes to basal expression in I/I allele homozygotes.” left out

[1] = 5 μNI simvastatin, normalized to vehicle

Row | SMILES | upregulation (induction) of FADS1 higher for the D/D haplotype than for I/I (FADS1 expression; D/D vs I/I haplotype homozygote lymphoblasts, 5 μNI simvastatin, 1 μNI GW3965) | final FADS1 expression after treatment, difference between genotypes (in words) (FADS1 expression; D/D vs I/I lymphoblasts, normalized to basal I/I expression) | upregulation of FADS1 (FADS1 expression; I/I haplotype homozygote lymphoblasts, 5 μNI simvastatin, 1 μNI GW3965, normalized to vehicle) | FADS1 response to drug, D/D vs I/I haplotype homozygotes (in words) (FADS1 expression; [1]) | FADS2 expression increase in D/D haplotype homozygotes compared with I/I (in words) (FADS2 expression; lymphoblasts, normalized to vehicle) | FADS2 response to treatment (in words) (FADS2 expression; I/I and D/D lymphoblasts, 20 μM rosiglitazone)
1 | O=C(O)Cc1cccc(OCCCN(Cc2cccc(C(F)(F)F)c2Cl)CC(c2ccccc2)c2ccccc2)c1 [GW3965] | 25% | did not significantly differ; also recorded: no longer significantly different | about two | significantly greater fold increase | even more | –
2 | CN(CCOc1ccc(CC2SC(=O)NC2=O)cc1)c1ccccn1 (stereo not shown) [rosiglitazone] | – | – | – | no response | – | no response

— US9914969B2, “Fads regulation” (CORNELL UNIVERSITY, priority 2012, dated 2018)
